Here are results for one compound from patent US20080090903A1, “PHENYLALKYL CARBAMATE COMPOSITIONS” (priority 2006, published 2008).

The series can be described thus: Forced degradation of the phenylalkyl carbamate as a function of pH (pH 9 carbonate buffer, LC-MS). The following applies: room temperature. The series is classed as physicochemical. As for the experimental part:
Under certain conditions of elevated temperature and relative humidity, such as, 25° C. and 40% RH, 25° C. and 60% RH, 25° C. and 80% RH, 45° C. and 20% RH, 45° C. and 40% RH, 45° C. and 60% RH, 45° C. and 80% RH, or 40° C. and75% RH and the like, an exposed compound or composition may be subject to degradation.
As shown in Scheme A, a sample of Compound A1, the carbamic acid (2R)-2-(2-chloro-phenyl)-2-hydroxy-ethyl ester compound of formula (Ib), was dissolved in a pH 9 carbonate buffer.
The sample was analyzed by LC-MS under reverse phase conditions using positive ion ESI and APCI detection.

For `NC(=O)OC[C@H](O)c1ccccc1Cl` [Compound A1, carbamic acid (2R)-2-(2-chloro-phenyl)-2-hydroxy-ethyl ester], the Degradation in solution entry is on record as “degradation products had formed in appreciable amounts”.
